Reference: PMC4281523 (Pharmaceutical research, 2013)

Experiments:
[1] = cited from earlier work
[2] = format: physicochemical
[3] = format: physicochemical; details: soybean oil in fed state medium, absence of lipolysis
[4] = Drug release from SEDDS during in vitro digestion, EPR; format: physicochemical

Structure (SMILES)	octanol/water partition coefficient (log P) [1]	percentage of released drug from SEDDS ([2]; 90 minutes, absence of digestion)	drug released from SEDDS ([2]; over 18 hours, absence of digestive enzyme)	TB uptake constant into oil, Prel [3]	time of leveling off of drug release [4]	logP [1]
CC1(C)CC(OC(=O)c2ccccc2)CC(C)(C)N1[O] [TB, TEMPOL benzoate]	2.46	9%	14%	0.0352 ×10⁻⁶ cm/s	50 min	–
CC(C)(Sc1cc(C(C)(C)C)c(O)c(C(C)(C)C)c1)Sc1cc(C(C)(C)C)c(O)c(C(C)(C)C)c1 [Probucol]	–	–	–	–	–	8.92
